Laboratory results published in US20220315572A1, “SUBSTITUTED CYANOPYRROLIDINES WITH ACTIVITY AS USP30 INHIBITORS” (MISSION THERAPEUTICS LIMITED, priority 2019, published 2022).

Assays:
UCHL1 = molecular target: T1, UCHL1 (Homo sapiens, UniProt P09936); assay: DUB biochemical IC50 assay, UCHL1
T1 sequence (P09936 1-223): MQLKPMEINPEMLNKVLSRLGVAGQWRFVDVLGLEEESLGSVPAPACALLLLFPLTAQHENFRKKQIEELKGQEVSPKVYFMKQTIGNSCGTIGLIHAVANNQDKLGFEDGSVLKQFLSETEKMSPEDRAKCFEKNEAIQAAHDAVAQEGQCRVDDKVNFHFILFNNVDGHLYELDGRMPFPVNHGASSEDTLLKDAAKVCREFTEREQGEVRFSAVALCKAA

Cathepsin L = Cathepsin L (Homo sapiens, UniProt P07711); assay: Cathepsin IC50, cathepsin L; assay type: biochemical
Cathepsin L, sequence (P07711 114-333, species assumed): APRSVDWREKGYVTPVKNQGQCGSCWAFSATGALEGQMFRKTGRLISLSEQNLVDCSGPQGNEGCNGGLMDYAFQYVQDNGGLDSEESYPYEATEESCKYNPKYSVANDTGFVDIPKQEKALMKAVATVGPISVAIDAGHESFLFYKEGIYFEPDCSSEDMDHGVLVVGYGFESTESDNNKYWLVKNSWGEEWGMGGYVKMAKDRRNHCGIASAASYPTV

Endogenous USP30 = molecular target: T2, Endogenous USP30 (Homo sapiens, UniProt Q70CQ3); assay: USP30 endogenous cellular target engagement western blot assay (Cell TE WB); assay type: cell-based; conditions: Hela cells stably overexpressing YFP-Parkin, 1 hour
T2 construct: USP30 endogenous cellular target engagement western blot (WB) assay; endogenous in cells; host or cells: HeLa stably overexpressing YFP-Parkin
T2 sequence (Q70CQ3 1-517): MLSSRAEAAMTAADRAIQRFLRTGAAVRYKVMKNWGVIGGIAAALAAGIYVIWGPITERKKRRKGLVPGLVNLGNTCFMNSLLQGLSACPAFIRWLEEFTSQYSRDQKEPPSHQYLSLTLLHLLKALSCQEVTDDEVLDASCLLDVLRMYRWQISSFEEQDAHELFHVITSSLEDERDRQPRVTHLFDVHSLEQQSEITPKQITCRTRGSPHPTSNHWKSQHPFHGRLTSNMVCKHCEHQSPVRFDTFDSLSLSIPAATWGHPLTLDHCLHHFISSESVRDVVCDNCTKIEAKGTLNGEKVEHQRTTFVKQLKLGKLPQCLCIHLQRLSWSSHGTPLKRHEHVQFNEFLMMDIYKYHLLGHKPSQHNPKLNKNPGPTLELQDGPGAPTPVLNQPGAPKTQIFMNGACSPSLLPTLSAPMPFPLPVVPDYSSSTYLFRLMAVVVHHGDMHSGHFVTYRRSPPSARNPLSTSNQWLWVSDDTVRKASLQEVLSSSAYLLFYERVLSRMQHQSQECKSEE
Procedure: Hela cells stably overexpressing YFP-Parkin were seeded into 6 well dishes. Once adhered, cells were treated with appropriate concentrations of test compounds or vehicle control for 1 hour at 37° C., 5% CO2. Whole cell lysates were prepared by scraping the cells into cold PBS, centrifuging and lysing in lysis buffer (50 mM Tris-base, pH 7.5, 50 mM NaCl, 1% NP-40/Igepal CA-630, 2 mM MgCl2, 10% Glycerol, 5 mM beta-mercaptoethanol, cOmplete mini tablets EDTA free (Roche), PhosStop tablets (Roche)) for 10 mins. The equivalent of 20 μg of protein from the cleared cell lysate was incubated with a final conc of 2.5 μM HA-Ahx-Ahx-Ub-VME probe at room temperature. The reaction was stopped by addition of 5×SDS sample loading buffer and proteins separated by SDS PAGE and western blotting. USP30 was detected using an anti-USP30 Sheep S746D antibody (MRC PPU Reagents and Services) and a rabbit anti sheep secondary IgG (H+L) horseradish peroxidase conjugated (Thermo #31480) and visualised using ECL reagent (GE #RPN2109) on a GE LAS4000 imager. Target engagement was measured by quantitation of the bands corresponding to USP30 and USP30 bound to the Ub-VME probe and expression of this proportion compared to vehicle treated control.
Cell TE WB: USP30 endogenous cellular target engagement western blot (WB) assay. Assays the activity of compounds against USP30 in cells using an irreversible activity probe to monitor USP30 activity.

USP30 = molecular target: T3, USP30 (Mus musculus, UniProt Q3UN04); assay: USP30 kidney tissue target engagement assay (TE ex vivo); assay type: in vivo; conditions: Mouse kidney 10 mg/kg PO
T3 construct: brain or kidney tissue samples from compound-dosed animals; from tissue; host or cells: kidney
T3 sequence (Q3UN04 1-517): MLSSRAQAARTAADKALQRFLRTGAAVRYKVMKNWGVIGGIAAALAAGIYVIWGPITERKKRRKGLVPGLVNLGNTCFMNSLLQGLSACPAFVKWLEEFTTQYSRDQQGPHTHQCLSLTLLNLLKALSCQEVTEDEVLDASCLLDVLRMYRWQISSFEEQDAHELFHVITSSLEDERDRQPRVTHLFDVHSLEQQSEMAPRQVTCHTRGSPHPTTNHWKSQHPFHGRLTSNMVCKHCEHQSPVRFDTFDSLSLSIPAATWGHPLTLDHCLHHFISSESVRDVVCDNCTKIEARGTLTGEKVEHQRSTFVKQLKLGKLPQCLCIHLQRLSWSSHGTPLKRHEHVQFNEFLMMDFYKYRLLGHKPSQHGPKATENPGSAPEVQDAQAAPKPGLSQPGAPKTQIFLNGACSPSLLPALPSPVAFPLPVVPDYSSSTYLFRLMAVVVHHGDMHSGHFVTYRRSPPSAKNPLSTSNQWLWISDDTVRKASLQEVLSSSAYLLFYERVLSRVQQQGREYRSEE
Procedure: 50 to 100 mg of tissue was homogenised in 3× volume of lysis buffer (50 mM Tris, pH 7.5, 50 mM NaCl, 0.1% NP-40/Igepal CA-630, 0.5% CHAPS, 2 mM MgCl2, 5 mM beta-mercaptoethanol, cOmplete mini tablets EDTA free (Roche), PhosStop tablets (Roche)) using a Retch Mixer Mill (MM400). Lysate containing 60 μg protein was incubated with a final conc of 6 μM of HA-Ahx-Ahx-Ub-VME probe for 15 mins at room temperature. The reaction was stopped by addition of 5×SDS sample loading buffer and proteins separated by SDS-PAGE and western blotting. USP30 was detected using an anti-USP30 Sheep S746D antibody (MRC PPU Reagents and Services) and a rabbit anti sheep secondary IgG (H+L) horseradish peroxidase conjugated (Thermo #31480) and visualised using ECL reagent (GE #RPN2109) on a GE LAS4000 imager. Target engagement was measured by quantitation of the bands corresponding to USP30 and USP30 bound to the Ub-VME probe and expression of this proportion compared to vehicle treated control.
TE ex vivo: USP30 kidney tissue target engagement assay.

| Structure (SMILES) | DUB selectivity preference for USP30 v UCHL1 (UCHL1) | IC50 (UCHL1) [µM] | IC50 (Cathepsin L) [µM] | EC50 (Endogenous USP30) [µM] | melting point [°C] | fold more selective for USP30 over cathepsin L than A (Cathepsin L; v Reference Example A) [fold] | fold more selective for USP30 over cathepsin L than B (Cathepsin L; v Reference Example B) [fold] | fold more selective for USP30 over cathepsin L than C (Cathepsin L; v Reference Example C) [fold] | fold more selective for USP30 over cathepsin L than D (Cathepsin L; v Reference Example D) [fold] | fold more selective for USP30 over cathepsin L than E (Cathepsin L; v Reference Example E) [fold] | fold more selective for USP30 over cathepsin L than F (Cathepsin L; v Reference Example F) [fold] | TE ex vivo TE % occupancy (USP30; 1 h post-dose) [%] | TE ex vivo TE % occupancy (USP30; 4 h post-dose) [%] | TE ex vivo TE % occupancy (USP30; 8 h post-dose) [%] | TE ex vivo TE % occupancy (USP30; 12 h post-dose) [%] |
| --- | --- | --- | --- | --- | --- | --- | --- | --- | --- | --- | --- | --- | --- | --- | --- |
| N#Cc1cccc(-c2nnc(C(=O)N[C@@H]3C[C@@H](CF)N(C#N)C3)o2)c1 [Example 3, N-((3R,5S)-1-Cyano-5-(fluoromethyl)pyrrolidin-3-yl)-5-(3-cyanophenyl)-1,3,4-oxadiazole-2-carboxamide] | 15400 | 200 | 9.9 | 0.037 | – | – | – | – | – | – | – | – | – | – | – |
| C[C@@H]1C[C@@H](NC(=O)c2nnc(-c3cccc(C#N)c3)o2)CN1C#N [Example 1, N-((3R,5R)-1-Cyano-5-methylpyrrolidin-3-yl)-5-(3-cyanophenyl)-1,3,4-oxadiazole-2-carboxamide] | 10300 | > 300 | 30.9 | 0.064 | 152 to 154 | 27 | 59 | 18 | 19 | 333 | 3135 | 94 | 89 | 79 | 8 |
